# In publication PMC5556379 (Journal of medicinal chemistry, 2017):
# Tests used:
# [1] = target: T1, hiCE (Homo sapiens, UniProt O00748); type: cell-based; conditions: U373MG cells expressing hiCE; irinotecan as substrate
# T1 sequence (O00748 27-559): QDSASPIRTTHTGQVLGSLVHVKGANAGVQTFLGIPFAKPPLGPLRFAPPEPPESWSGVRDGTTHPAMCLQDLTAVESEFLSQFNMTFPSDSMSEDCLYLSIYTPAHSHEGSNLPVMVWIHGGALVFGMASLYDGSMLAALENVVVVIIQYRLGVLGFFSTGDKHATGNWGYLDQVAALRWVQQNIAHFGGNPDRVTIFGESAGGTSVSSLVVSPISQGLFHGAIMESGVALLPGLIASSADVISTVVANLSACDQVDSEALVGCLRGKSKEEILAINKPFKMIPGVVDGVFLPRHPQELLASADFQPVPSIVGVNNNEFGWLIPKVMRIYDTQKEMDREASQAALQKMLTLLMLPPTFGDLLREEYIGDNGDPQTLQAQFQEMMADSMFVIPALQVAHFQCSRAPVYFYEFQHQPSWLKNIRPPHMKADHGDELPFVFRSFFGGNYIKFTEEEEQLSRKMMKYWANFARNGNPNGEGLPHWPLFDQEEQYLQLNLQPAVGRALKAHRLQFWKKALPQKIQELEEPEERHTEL
# [2] = target: T2, hCE1 (Homo sapiens, UniProt P23141); conditions: read-out: Ki with hCE1; cited from earlier work
# T2 sequence (P23141 18-567): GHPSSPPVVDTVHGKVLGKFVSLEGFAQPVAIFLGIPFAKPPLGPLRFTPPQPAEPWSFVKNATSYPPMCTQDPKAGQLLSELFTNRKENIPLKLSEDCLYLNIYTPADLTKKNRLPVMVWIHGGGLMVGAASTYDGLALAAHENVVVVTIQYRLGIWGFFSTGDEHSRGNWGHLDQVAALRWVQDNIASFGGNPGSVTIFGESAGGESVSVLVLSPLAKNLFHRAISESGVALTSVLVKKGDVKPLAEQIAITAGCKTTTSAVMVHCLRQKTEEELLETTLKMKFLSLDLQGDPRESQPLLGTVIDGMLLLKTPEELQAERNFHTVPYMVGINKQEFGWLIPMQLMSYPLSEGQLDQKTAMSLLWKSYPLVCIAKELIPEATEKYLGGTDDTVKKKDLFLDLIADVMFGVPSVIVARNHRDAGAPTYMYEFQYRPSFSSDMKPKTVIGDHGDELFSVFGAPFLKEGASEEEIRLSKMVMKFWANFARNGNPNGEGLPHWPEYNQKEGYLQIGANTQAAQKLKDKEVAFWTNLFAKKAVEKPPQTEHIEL
smiles,measurement,setting,value
"COc1ccc(N(C)C2=CC(=O)C(=O)c3ccccc32)cc1 [Compound 17, 4-((4-Methoxyphenyl)(methyl)amino)naphthalene-1,2-dione]",inhibition of hiCE in cells (loss in 7-ethyl-10-hydroxycamptothecin production),[1],less than 23%
"Cc1ccc(N(C)C2=CC(=O)C(=O)c3ccccc32)cc1 [Compound 18, 4-((4-Methylphenyl)(methyl)amino)naphthalene-1,2-dione]",inhibition of hiCE in cells (loss in 7-ethyl-10-hydroxycamptothecin production),[1],less than 23%
Cc1cccc2c3c(ccc12)C1=C(C(=O)C3=O)[C@@H](C)CO1 [dihydrotanshinone],Ki,[2],398 nM
